Reference: patent EP0588799B1, “NEW SULPHONAMIDES, PROCESS FOR PREPARING THE SAME AND MEDICAMENTS CONTAINING THESE COMPOUNDS” (BOEHRINGER MANNHEIM GMBH, priority 1991, dated 1992)

Key:
[1] = test system: P 388 D.1 Makrophagen; experiment: Inhibition of cholesterol ester formation in macrophages (after Huber et al.); assay type: cell-based; conditions: P 388 D.1 macrophages; for Hemmung der Cholesterinesterbildung in Macro- (P388D.1): 18 h incubation, F-10 medium + 1 µM Cu(II) + 50 µg/ml LDL + 5 % FCS, test concentration not given
Protocol: Hemmung der Cholesterinesterbildung in Makrophagen (nach Huber et al. (1990) Free Rad. Res. Comms. 8, 167-173)
Humanplasma-LDL wurde durch sequentielle Ultrazentrifugation bei präselekierten Dichten aus dem Plasma gesunder männlicher Nichtraucher isoliert und für 5 h bei 37° C in F-10 Medium + 1µM Cu(II) zur Depletion seiner lipophilen Antioxidantien inkubiert. Die Bildung von Cholesterinestern in P 388 D.1 Makrophagen unter Einfluß von konditioniertem human Plasma-LDL wurde nach 18 h Inkubation der Zellen (2 x 10^6/ml) in F-10 Medium + 1 µM Cu(II) + 50 µg/ml LDL + 5 % FCS nach Extraktion der Neutral fette dünnschichtchromatographisch gemessen.

[2] = test system: Plasma-LDL; experiment: Stabilisation of plasma LDL: prolongation of the lag phase of Cu(II)-induced oxidation (diene formation at A 234); assay type: biochemical, human; conditions: for Stabilisierung v. Plasma LDL: Verlängerung der "lag-Phase": 3 molecules test substance per LDL particle, LDL 125 µg protein/ml, 10 µM CuCl2, pH 8, 42° C
Protocol: Stabilisierung von Plasma-LDL (nach Huber et al. (1990) Free Rad. Res. Comms. 8, 167-173)
LDL (125 µg Protein/ml) wurde in 20 mM Tris-Cl pH 8, 150 mM NaCl, 10 µM CuCl2 mit und ohne Testverbindung (gelöst in Äthanol, Äthanolendkonzentration 0,5 %) bei 42° C oxidiert. Es wurden jeweils 3 Moleküle Testsubstanz pro LDL-Partikel eingesetzt. Die Oxidation wurde kontinuierlich photometrisch bei A 234 durch die Messung der Dienbildung verfolgt. Die sogenannte "lag Phase" ist als dasjenige Zeitintervall definiert, das sich aus dem Schnittpunkt der Tangente der Kurve während der Propagationsreaktion der Lipidperoxidation und der Zeitachse ergibt.

Row | Structure (SMILES) | Hemmung der Cholesterinesterbildung in Macro- (P388D.1) [1] | Hemmung der Chol-ester-bildung ([1]; reference substance, 10 /uM, n=7) | verlängern die lag-Phase von LDL ([2]; reference substance, 3 molecules/LDL particle) [%] | Stabilisierung v. Plasma LDL: Verlängerung der "lag-Phase" [2]
1 | CC(C)(C)c1cc(CCCNS(=O)(=O)c2cc(C(C)(C)C)c(O)c(C(C)(C)C)c2)cc(C(C)(C)C)c1O [Beispiel 3.13] | -72.6 | – | – | –
2 | Cc1cc(C(C)(C)C)c(O)c(S(=O)(=O)NCc2ccccc2)c1 [Beispiel 2.2, (3-^tButyl-2-hydroxy-5-methyl)benzolsulfo-benzylamid] | -64.1 | – | – | –
3 | CC(C)(C)c1cc(NS(=O)(=O)c2cc(C(C)(C)C)c(O)c(C(C)(C)C)c2)cc(C(C)(C)C)c1O [Beispiel 3.10] | -77.4 | – | – | –
4 | CC(C)(Sc1cc(C(C)(C)C)c(O)c(C(C)(C)C)c1)Sc1cc(C(C)(C)C)c(O)c(C(C)(C)C)c1 [Probucol, reference compound] | – | 25-42% | 10 | –
5 | CC(C)(C)c1cc(S(=O)(=O)NCc2ccccc2)cc(C(C)(C)C)c1O [1b).2, (3,5-Di-^tbutyl-4-hydroxy)benzolsulfo-benzylamid] | -73,0 | – | – | 8
6 | CC(C)(C)c1cc(CNS(=O)(=O)c2cc(C(C)(C)C)c(O)c(C(C)(C)C)c2)cc(C(C)(C)C)c1O [Beispiel 3.11] | -66.7 | – | – | 79
7 | CC(C)(C)c1cc(CCNS(=O)(=O)c2cc(C(C)(C)C)c(O)c(C(C)(C)C)c2)cc(C(C)(C)C)c1O [Beispiel 3.12] | -63.4 | – | – | –
